From patent publication US10160726B2, “Quinolone derivatives as antibacterials” (priority 2014, dated 2018)
Converted amounts (≈) assume the structure as drawn. Counter-ions that a name gives are not always drawn.

Assays:
[1] = test system: P. aeruginosa NB52019 (wild-type PAO1); assay: MIC, broth microdilution (CLSI); format: cell-based; settings: Pseudomonas aeruginosa, PAO1, 20 h; read-out: Antibacterial activity (MIC) NB52019
[2] = test system: E. coli ATCC 25922 (NB27001); assay: MIC, broth microdilution (CLSI); format: cell-based; settings: Escherichia coli, ATCC25922; E. coli ATCC 25922; 35° C., 20 hours; read-out: Antibacterial activity (MIC) NB27001
[3] = test system: P. aeruginosa NB52023 (efflux deficient K1542, ΔmexX ΔmexB); assay: microbe, parasite or virus in culture; format: cell-based; settings: Pseudomonas aeruginosa, 20 h, read-out: Antibacterial activity (MIC) NB52023
[4] = molecular target: E. coli DNA gyrase (GyrA-B) (Escherichia coli, UniProt P0AES4); assay: Supercoiling assay of E. coli gyrase; format: biochemical; settings: supercoiling activity of E. coli gyrase (GyrA-B); read-out: GyrA-B IC50 (Enzyme)
E. coli DNA gyrase (GyrA-B), sequence (P0AES4 whole entry): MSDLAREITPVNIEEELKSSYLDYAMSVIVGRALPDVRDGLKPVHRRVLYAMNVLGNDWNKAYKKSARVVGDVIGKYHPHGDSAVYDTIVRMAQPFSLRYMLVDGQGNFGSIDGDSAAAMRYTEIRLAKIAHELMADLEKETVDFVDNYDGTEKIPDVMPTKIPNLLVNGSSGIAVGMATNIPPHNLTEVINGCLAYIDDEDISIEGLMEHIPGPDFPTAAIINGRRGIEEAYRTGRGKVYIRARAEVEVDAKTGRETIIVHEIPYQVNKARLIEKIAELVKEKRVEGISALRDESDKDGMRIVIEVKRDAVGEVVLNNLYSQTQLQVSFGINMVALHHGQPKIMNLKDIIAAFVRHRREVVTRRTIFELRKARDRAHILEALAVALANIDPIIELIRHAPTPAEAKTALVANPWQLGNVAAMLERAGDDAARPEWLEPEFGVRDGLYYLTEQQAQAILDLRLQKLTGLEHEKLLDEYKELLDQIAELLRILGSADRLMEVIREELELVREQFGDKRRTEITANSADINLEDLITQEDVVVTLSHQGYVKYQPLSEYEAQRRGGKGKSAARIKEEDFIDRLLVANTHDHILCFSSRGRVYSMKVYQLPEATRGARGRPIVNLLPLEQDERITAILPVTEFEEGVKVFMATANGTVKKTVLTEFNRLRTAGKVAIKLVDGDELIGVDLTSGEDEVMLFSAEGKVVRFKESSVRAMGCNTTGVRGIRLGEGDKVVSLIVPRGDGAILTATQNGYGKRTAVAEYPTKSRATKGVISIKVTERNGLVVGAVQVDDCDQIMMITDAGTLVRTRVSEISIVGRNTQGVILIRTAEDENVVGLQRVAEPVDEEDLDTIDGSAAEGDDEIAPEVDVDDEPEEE
Method: Method 1: Supercoiling Assay of E. Coli Gyrase
Enzymatic activity of E. coli DNA gyrase reconstituted from its purified subunits was assessed by monitoring the introduction of supercoils into the relaxed plasmid pHOT-1 (TopoGEN, TG2035-3). To form the functional gyrase A2B2 heterotetrameric enzyme, equal molar concentrations of the GyrA and GyrB subunits were combined at high protein concentration (500 nM) and incubated on ice for 1 hour prior to assay start in reaction buffer without ATP or the pHOT-1 plasmid. The reaction mixture (25 μl) contained 10 nM enzyme, 10 ng/μl pHOT-1, 1 mM ATP, 35 mM Tris-HCl pH 7.5, 24 mM KCl, 4 mM MgCl2, 2 mM DTT, 1.8 mM spermidine, 6.5% glycerol, and 100 μg/ml bovine serum albumin. The reaction was carried out at 37° C. for 90 minutes and terminated by the addition of 2.5 μl of 10× stop solution (0.9% SDS, 50% glycerol, 0.05% bromophenol blue). […] Gels were stained with ethidium bromide (0.5 μg/ml) for 30 minutes and destained in water for 20 minutes. All gels were analyzed using the BIO-RAD ChemiDocTm XRS+ with Image Lab 3.0 software. The 50% inhibition concentration (IC50) was determined as being the compound concentration at which the supercoiled band was reduced by 50% from the DMSO drug free control (Microsoft Excel 2010 IDBS XLfit, GraftPad Prism 6).

[5] = test system: S. aureus ATCC 29213 (NB01001); assay: MIC, broth microdilution (CLSI); format: cell-based; settings: Staphylococcus aureus, ATCC29213; S. aureus ATCC 29213; 35° C., 20 hours; read-out: Antibacterial activity (MIC) NB01001
[6] = test system: P. aeruginosa NB52023-CDK0006 (gyrA T83I, parC S87L); assay: microbe, parasite or virus in culture; format: cell-based; settings: Pseudomonas aeruginosa, 20 h, read-out: Antibacterial activity (MIC) NB52023-CDK0006
[7] = molecular target: E. coli DNA topoisomerase IV (Topo IV, ParC-E) (Escherichia coli, UniProt P0AFI2); assay: Decatenation assay of E. coli Topo IV; format: biochemical; settings: decatenation activity of E. coli topoIV (ParC-E); read-out: ParC-E IC50 (Enzyme)
E. coli DNA topoisomerase IV (Topo IV, ParC-E), sequence (P0AFI2 whole entry): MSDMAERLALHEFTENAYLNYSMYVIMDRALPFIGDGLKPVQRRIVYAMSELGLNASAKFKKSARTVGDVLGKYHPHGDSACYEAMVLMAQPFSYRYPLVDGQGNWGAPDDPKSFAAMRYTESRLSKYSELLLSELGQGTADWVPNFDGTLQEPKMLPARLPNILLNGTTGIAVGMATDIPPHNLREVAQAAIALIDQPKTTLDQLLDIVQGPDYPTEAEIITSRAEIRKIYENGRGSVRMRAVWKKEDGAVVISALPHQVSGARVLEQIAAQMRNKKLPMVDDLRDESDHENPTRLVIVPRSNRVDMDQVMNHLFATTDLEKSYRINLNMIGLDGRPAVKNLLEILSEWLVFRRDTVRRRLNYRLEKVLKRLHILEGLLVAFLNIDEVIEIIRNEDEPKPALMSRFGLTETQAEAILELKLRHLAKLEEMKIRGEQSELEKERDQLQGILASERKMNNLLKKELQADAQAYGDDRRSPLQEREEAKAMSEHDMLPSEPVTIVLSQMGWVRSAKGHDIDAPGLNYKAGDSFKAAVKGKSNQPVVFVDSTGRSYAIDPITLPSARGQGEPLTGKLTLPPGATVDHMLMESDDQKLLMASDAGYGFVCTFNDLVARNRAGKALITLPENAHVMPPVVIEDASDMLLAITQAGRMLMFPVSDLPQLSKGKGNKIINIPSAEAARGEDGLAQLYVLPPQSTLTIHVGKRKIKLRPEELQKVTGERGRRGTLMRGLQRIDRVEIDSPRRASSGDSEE
E. coli DNA topoisomerase IV (Topo IV, ParC-E), sequence (P20083 whole entry, further chain): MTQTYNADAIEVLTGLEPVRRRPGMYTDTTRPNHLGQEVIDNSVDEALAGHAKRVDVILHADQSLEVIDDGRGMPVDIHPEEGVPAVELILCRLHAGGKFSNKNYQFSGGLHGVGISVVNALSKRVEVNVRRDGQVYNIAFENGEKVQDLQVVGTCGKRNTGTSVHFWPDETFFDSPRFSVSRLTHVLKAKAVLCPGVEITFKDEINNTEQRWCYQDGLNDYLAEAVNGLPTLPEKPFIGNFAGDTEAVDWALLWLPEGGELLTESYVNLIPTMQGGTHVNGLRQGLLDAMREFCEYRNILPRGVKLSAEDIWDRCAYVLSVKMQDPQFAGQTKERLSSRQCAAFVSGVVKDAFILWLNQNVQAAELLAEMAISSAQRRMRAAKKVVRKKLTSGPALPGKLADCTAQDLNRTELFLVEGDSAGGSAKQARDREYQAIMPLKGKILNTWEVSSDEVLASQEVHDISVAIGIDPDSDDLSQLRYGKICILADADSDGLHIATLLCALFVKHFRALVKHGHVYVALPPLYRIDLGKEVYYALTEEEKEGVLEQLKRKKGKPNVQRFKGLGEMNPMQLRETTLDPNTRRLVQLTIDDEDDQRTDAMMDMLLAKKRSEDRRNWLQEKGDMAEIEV
Method: Method 2: Decatenation Assay of E. Coli Topo IV
Enzymatic activity of the E. coli DNA topoisomerase IV (Topo IV) reconstituted from its purified subunits was monitored by the decatenation of kinetoplast DNA into minicircles (kDNA, TopoGEN, TG2013-3). To form the functional Topo IV C2E2 heterotetrameric enzyme, equal molar concentrations of the ParC and ParE subunits were combined at high protein concentration (500 nM) and incubated on ice for 1 hour prior to assay start in reaction buffer without ATP or the kDNA. […] The reaction was carried out at 37° C. for 2 hours and terminated by the addition of 2.5 μl of 10× stop solution (0.9% SDS, 50% glycerol, 0.05% bromophenol blue). […] Gels were stained with ethidium bromide (0.5 μg/ml) for 30 minutes and distained in water for 20 minutes. All gels were analyzed using the BIO-RAD ChemiDoc™ XRS^+ with Image Lab 3.0 software. The 50% inhibitor concentration (IC50) was determined as being the compound concentration at which the presence of the kDNA minicircles in the gel was reduced by 50% from the DMSO drug free control (Microsoft Excel 2010 IDBS XLfit, Graph Pad Prism 6).

[8] = test system: E. coli NB27177 (efflux deficient CGSC 11430, ΔtolC732::kan); assay: microbe, parasite or virus in culture; format: cell-based; settings: Escherichia coli, 20 h, read-out: Antibacterial activity (MIC) NB27177
[9] = test system: S. aureus NB01006-AVR005 (gyrA S84L, grlA S80F, grlB E471K); assay: microbe, parasite or virus in culture; format: cell-based; settings: Staphylococcus aureus, 20 h, read-out: Antibacterial activity (MIC) NB01006-AVR005

SMILES	MIC [1] [µg/mL]	MIC [2] [µg/mL]	MIC [3] [µg/mL]	IC50 [4] [µM]	MIC [5] [µg/mL]	MIC [6] [µg/mL]	IC50 [7] [µM]	MIC [8] [µg/mL]	MIC [9] [µg/mL]
C#Cc1cc(=O)n(C2CC2)c2c(C)c(N3CC[C@@H]([C@H](C)N)C3)c(F)cc12 [Example 25, 7-((R)-3-((S)-1-aminoethyl)pyrrolidin-1-yl)-1-cyclopropyl-4-ethynyl-6-fluoro-8-methylquinolin-2(1H)-one]	8 (≈ 22.6 µM)	4 (≈ 11.3 µM)	2 (≈ 5.66 µM)	1.03	0.06 (≈ 0.17 µM)	4 (≈ 11.3 µM)	6.46	0.06 (≈ 0.17 µM)	< 0.03
Cc1c(N2CC[C@@H]([C@H](C)N)C2)c(F)cc2c(C#N)cc(=O)n(C3CC3)c12 [Example 27, 7-((R)-3-((S)-1-aminoethyl)pyrrolidin-1-yl)-1-cyclopropyl-6-fluoro-8-methyl-2-oxo-1,2-dihydroquinoline-4-carbonitrile]	4 (≈ 11.3 µM)	1 (≈ 2.82 µM)	1 (≈ 2.82 µM)	0.13	< 0.03	2 (≈ 5.64 µM)	0.59	< 0.03	< 0.03
Cc1c(N2CC[C@H](N)C2)c(F)cc2c(C#N)cc(=O)n(C3CC3)c12 [Example 30, (S)-7-(3-aminopyrrolidin-1-yl)-1-cyclopropyl-6-fluoro-8-methyl-2-oxo-1,2-dihydroquinoline-4-carbonitrile]	8 (≈ 24.5 µM)	1 (≈ 3.06 µM)	1 (≈ 3.06 µM)	0.98	0.5 (≈ 1.53 µM)	4 (≈ 12.3 µM)	14.6	< 0.03	0.5 (≈ 1.53 µM)
Cc1c(N2CC[C@@H]([C@H](C)N)C2)c(F)cc2c(C(N)=O)cc(=O)n(C3CC3)c12 [Example 34, 7-((R)-3-((S)-1-aminoethyl)pyrrolidin-1-yl)-1-cyclopropyl-6-fluoro-8-methyl-2-oxo-1,2-dihydroquinoline-4-carboxamide]	> 32	32 (≈ 85.9 µM)	16 (≈ 43 µM)	0.44	4 (≈ 10.7 µM)	16 (≈ 43 µM)	5.14	2 (≈ 5.37 µM)	4 (≈ 10.7 µM)
Cc1c(N2CC[C@@H]([C@H](C)N)C2)c(F)cc2c(-c3n[nH]c(=O)o3)cc(=O)n(C3CC3)c12 [Example 42, 5-(7-((R)-3-((S)-1-aminoethyl)pyrrolidin-1-yl)-1-cyclopropyl-6-fluoro-8-methyl-2-oxo-1,2-dihydroquinolin-4-yl)-1,3,4-oxadiazol-2(3H)-one]	> 32	8 (≈ 19.3 µM)	8 (≈ 19.3 µM)	0.83	0.5 (≈ 1.21 µM)	32 (≈ 77.4 µM)	1.86	0.25 (≈ 0.605 µM)	0.5 (≈ 1.21 µM)
Cc1c(N2CC[C@@H]([C@H](C)N)C2)c(F)cc2c(C(=O)NO)cc(=O)n(C3CC3)c12 [Example 43, 7-((R)-3-((S)-1-aminoethyl)pyrrolidin-1-yl)-1-cyclopropyl-6-fluoro-N-hydroxy-8-methyl-2-oxo-1,2-dihydroquinoline-4-carboxamide]	> 32	32 (≈ 82.4 µM)	> 32	0.56	8 (≈ 20.6 µM)	> 32	3.35	4 (≈ 10.3 µM)	16 (≈ 41.2 µM)
Cc1c(N2CC[C@@H]([C@H](C)N)C2)c(F)cc2c(CN)cc(=O)n(C3CC3)c12 [Example 45, 7-((R)-3-((S)-1-aminoethyl)pyrrolidin-1-yl)-4-(aminomethyl)-1-cyclopropyl-6-fluoro-8-methylquinolin-2(1H)-one]	2 (≈ 5.58 µM)	1 (≈ 2.79 µM)	0.5 (≈ 1.39 µM)	< 0.1	0.25 (≈ 0.697 µM)	2 (≈ 5.58 µM)	0.24	0.06 (≈ 0.167 µM)	0.5 (≈ 1.39 µM)
Cc1c(N2CC[C@@H]([C@H](C)N)C2)ccc2c(OCC3CCOCC3)cc(=O)n(C3CC3)c12 [Example 73, 7-((R)-3-((S)-1-aminoethyl)pyrrolidin-1-yl)-1-cyclopropyl-8-methyl-4-((tetrahydro-2H-pyran-4-yl)methoxy)quinolin-2(1H)-one TFA salt]	> 32	32	> 32	3.01	1	> 32	4.97	2	4
Cc1c(N2CC[C@@H]([C@H](C)N)C2)ccc2c(OCCN(C)C)cc(=O)n(C3CC3)c12 [Example 74, 7-((R)-3-((S)-1-aminoethyl)pyrrolidin-1-yl)-1-cyclopropyl-4-(2-(dimethylamino)ethoxy)-8-methylquinolin-2(1H)-one TFA salt]	32	8	8	0.31	1	16	0.24	0.25	2
Cc1c(N2CC[C@@H]([C@H](C)N)C2)ccc2ccc(=O)n(C3CC3)c12 [Example 76, 7-((R)-3-((S)-1-aminoethyl)pyrrolidin-1-yl)-1-cyclopropyl-8-methylquinolin-2(1H)-one trifluoroacetic acid salt]	32	4	8	6.8	0.25	16	38.5	0.125	0.5
Cc1c(N2CC[C@@H]([C@H](C)N)C2)ccc2cc(O)c(=O)n(C3CC3)c12 [Example 79, 7-((R)-3-((S)-1-aminoethyl)pyrrolidin-1-yl)-1-cyclopropyl-3-hydroxy-8-methylquinolin-2(1H)-one TFA salt]	> 32	8	> 32	2.44	2	> 32	1.84	1	8
